Measured values taken from ChEMBL document CHEMBL1140010, “Discovery of novel prostaglandin analogs of PGE2 as potent and selective EP2 and EP4 receptor agonists” (Bioorg Med Chem Lett, 2007).

Legend:
[1] = biological target: T1, Prostaglandin E2 receptor EP4 subtype (Homo sapiens, UniProt P35408); assay: Displacement of [3H]PGE2 from human EP4 receptor expressed in HEK293 cells; type: cell-based
[2] = biological target: T2, Prostaglandin E2 receptor EP2 subtype (Homo sapiens, UniProt P43116); assay: Displacement of [3H]PGE2 from human EP2 receptor expressed in HEK293 cells; type: cell-based
T2 sequence (P43116 whole entry): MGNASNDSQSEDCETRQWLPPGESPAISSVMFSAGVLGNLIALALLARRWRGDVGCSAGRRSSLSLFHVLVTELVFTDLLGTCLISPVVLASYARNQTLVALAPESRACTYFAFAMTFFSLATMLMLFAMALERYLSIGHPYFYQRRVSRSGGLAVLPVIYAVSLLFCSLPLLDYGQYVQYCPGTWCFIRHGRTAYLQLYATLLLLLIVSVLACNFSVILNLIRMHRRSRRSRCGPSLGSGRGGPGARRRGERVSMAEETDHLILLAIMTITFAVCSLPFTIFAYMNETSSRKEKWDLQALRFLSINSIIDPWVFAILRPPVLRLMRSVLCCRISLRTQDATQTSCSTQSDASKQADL

[3] = biological target: T2, Prostaglandin E2 receptor EP2 subtype; assay: Agonist activity at EP2 receptor expressed in HEK293 cells assessed as cAMP accumulation; type: functional, cell-based
[4] = biological target: T1, Prostaglandin E2 receptor EP4 subtype; assay: Agonist activity at EP4 receptor expressed in HEK293 cells assessed as cAMP accumulation; type: functional, cell-based
[5] = biological target: T3, Prostaglandin E2 receptor EP1 subtype (Homo sapiens, UniProt P34995); assay: Displacement of [3H]PGE2 from human EP1 receptor expressed in HEK293 cells; type: cell-based
T3 sequence (P34995 whole entry): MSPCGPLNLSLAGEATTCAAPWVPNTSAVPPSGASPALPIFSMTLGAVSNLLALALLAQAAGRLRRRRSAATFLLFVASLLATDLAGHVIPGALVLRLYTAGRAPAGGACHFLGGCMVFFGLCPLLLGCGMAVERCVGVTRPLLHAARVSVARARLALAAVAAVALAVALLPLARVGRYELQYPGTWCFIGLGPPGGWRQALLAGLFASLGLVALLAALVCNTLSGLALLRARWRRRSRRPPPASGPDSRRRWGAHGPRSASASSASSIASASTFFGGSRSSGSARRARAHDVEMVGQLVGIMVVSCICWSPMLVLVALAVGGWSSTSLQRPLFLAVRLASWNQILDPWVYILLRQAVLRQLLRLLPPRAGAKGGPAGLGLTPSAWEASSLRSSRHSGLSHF

[6] = biological target: T4, Prostaglandin E2 receptor EP3 subtype (Homo sapiens, UniProt P43115); assay: Displacement of [3H]PGE2 from human EP3 receptor expressed in HEK293 cells; type: cell-based
T4 sequence (P43115 whole entry): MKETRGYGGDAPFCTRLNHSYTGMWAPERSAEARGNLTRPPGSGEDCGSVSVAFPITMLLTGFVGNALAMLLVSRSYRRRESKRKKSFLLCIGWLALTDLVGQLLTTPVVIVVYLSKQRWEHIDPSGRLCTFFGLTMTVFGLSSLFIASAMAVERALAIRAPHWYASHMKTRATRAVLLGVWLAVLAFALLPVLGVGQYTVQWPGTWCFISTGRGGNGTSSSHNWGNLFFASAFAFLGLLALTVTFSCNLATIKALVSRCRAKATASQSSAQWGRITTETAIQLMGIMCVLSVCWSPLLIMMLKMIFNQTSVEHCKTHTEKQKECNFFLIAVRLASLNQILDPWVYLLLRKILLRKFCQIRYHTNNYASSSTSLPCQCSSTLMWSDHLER

[7] = Half life in rat; type: ADME, organism-based; conditions: in vivo
Mus musculus = assay: Induction of ovulation in orally dosed CD1 mouse; type: functional; conditions: CD1, po
[8] = Bioavailability in rat at 1 mg/kg; type: ADME, organism-based; conditions: in vivo
[9] = Clearance in iv dosed rat; type: ADME, organism-based; conditions: in vivo

T1 sequence (P35408 whole entry): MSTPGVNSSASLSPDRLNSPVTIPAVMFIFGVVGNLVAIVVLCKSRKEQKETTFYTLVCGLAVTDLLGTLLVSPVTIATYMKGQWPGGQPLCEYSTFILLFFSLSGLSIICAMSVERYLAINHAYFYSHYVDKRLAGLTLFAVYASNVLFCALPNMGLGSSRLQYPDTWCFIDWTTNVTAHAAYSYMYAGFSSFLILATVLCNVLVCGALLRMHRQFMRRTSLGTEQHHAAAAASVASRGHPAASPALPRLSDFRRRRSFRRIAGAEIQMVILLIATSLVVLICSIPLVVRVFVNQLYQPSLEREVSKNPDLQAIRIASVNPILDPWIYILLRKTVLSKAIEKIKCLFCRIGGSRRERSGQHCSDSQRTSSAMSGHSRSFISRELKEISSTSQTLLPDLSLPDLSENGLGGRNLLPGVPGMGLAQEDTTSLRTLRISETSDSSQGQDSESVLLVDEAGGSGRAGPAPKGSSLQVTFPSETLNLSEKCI

Row | SMILES | Ki [1] [nM] | Ki [2] [nM] | EC50 [3] [nM] | EC50 [4] [nM] | Ki [5] [µM] | Ki [6] [µM] | half-life [7] [min] | bioavailability [8] [%] | clearance [9] [mL/min/kg] | ED50 (Mus musculus) [mg/kg]
1 | CCCC/C=C(C)/C=C\[C@H]1CCC(=O)N1CCc1ccc(C(=O)O)cc1 | 443 | 802 | – | – | – | – | – | – | – | –
2 | C/C(=C\C=C\[C@H]1CCC(=O)N1CCc1ccc(C(=O)O)cc1)c1ccccc1 | 29 | 749 | > 10000 | 0.5 | – | – | – | – | – | –
3 | CCCC/C(C)=C/C=C/[C@H]1CCC(=O)N1CCc1ccc(C(=O)O)cc1 | 181 | 134 | 222 | 15 | 10 | 10 | – | – | – | –
4 | CC/C(C)=C\C=C\[C@H]1CCC(=O)N1CCc1ccc(C(=O)O)cc1 | 24 | 173 | – | 3 | – | – | – | – | – | –
5 | CC(C)=C/C=C/[C@H]1CCC(=O)N1CCc1ccc(C(=O)O)cc1 | 45 | 1850 | – | 4 | – | – | – | – | – | –

Stronger by Ki [2], values ahead:

Row | Ki [1] [nM] | Ki [2] [nM] | EC50 [3] [nM] | EC50 [4] [nM] | Ki [5] [µM] | Ki [6] [µM] | half-life [7] [min] | bioavailability [8] [%] | clearance [9] [mL/min/kg] | SMILES | ED50 (Mus musculus) [mg/kg]
6 | 2.5 | 126 | 16 | 0.002 | > 10 | 9 | – | – | – | CCCC[C@H](O)/C=C/[C@H]1CCC(=O)N1CCc1ccc(C(=O)O)cc1 | –
7 | 25 | 88 | 197 | 2 | – | – | – | – | – | CCCC/C=C\C=C\[C@H]1CCC(=O)N1CCc1ccc(C(=O)O)cc1 | –
8 | 117 | 60 | – | – | – | – | – | – | – | C/C(=C/C=C/[C@H]1CCC(=O)N1CCc1ccc(C(=O)O)cc1)CC1CCCC1 | –
9 | 4 | 60 | 35 | 0.1 | 10 | 10 | 462 | 72.6 | 2.5 | CCCC/C(C)=C\C=C\[C@H]1CCC(=O)N1CCc1ccc(C(=O)O)cc1 | 1
10 | – | 29 | – | – | – | – | – | – | – | CCCC/C=C(C)/C=C/[C@H]1CCC(=O)N1CCc1ccc(C(=O)O)cc1 | –
